The results in this text go back to patent US6410706B1, “Nucleic acid encoding chitin-binding receptor kinase” (Korea Research Institute of Bioscience and Biotechnology, priority 1999, dated 2002).

The experiment addresses recombinant chitinase domain of receptor kinase CHRK1 (amino acid residues 1 to 359 of SEQ ID NO: 1) (Nicotiana tabacum, UniProt Q9SWX8). Briefly: Fluorescence polarization chitin-binding assay with Scatchard plot analysis. As to conditions: excitation 318 nm, emission 373 nm; for binding to the chitinase domain, seen as change in polarization value: fluorescence polarization, thioredoxin control did not increase. How it is done:
The chitinase activity and the chitin-binding activity of receptor kinase CHRK1 in this invention are analysed using its recombinant chitinase domain. Consequently, the recombinant chitinase domain has a chitin-binding activity and lacks a chitinase activity.
In order to examine the chitinase activity of receptor kinase […], the recombinant chitinase domain corresponding to amino acid residues 1 to 359 of SEQ. ID NO: 1 was purified from E. coli, and its chitinase activity was estimated by fluorescence polarization assay.
As a result of Scratchard plot analysis, dissociation constant (kd) value of MU-chitotriose was estimated to be 800 nM. In case of using MU-chitotriose or MU-chitotetrose probe without fluorophor as a competitor, binding activity between the chitinase domain and MU-chitotriose or MU-chitotetrose conjugated with fluorophor was inhibited by the competitor. Consequently, the initial polarization value was decreased.
(Polarisation of emitted light reports the rotation of a fluorescent probe.)

Sequence of recombinant chitinase domain of receptor kinase CHRK1 (amino acid residues 1 to 359 of SEQ ID NO: 1) (Q9SWX8 entry or part of it): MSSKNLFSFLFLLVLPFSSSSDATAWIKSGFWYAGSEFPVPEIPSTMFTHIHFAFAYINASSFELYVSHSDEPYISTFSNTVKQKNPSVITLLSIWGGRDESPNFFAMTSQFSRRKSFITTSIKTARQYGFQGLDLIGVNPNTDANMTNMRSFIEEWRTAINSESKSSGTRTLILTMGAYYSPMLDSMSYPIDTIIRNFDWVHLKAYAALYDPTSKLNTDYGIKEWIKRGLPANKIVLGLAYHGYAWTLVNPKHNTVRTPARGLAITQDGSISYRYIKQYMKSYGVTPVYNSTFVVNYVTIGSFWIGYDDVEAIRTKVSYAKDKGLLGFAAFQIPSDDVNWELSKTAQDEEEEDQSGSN

With `CC(=O)N[C@H]1[C@H](Oc2ccc3c(C)cc(=O)oc3c2)O[C@H](CO)[C@@H](O[C@@H]2O[C@H](CO)[C@@H](O[C@@H]3O[C@H](CO)[C@@H](O)[C@H](O)[C@H]3NC(C)=O)[C@H](O)[C@H]2NC(C)=O)[C@@H]1O` [MU-chitotriose], the “binding to the chitinase domain, seen as change in polarization value” is “increased polarization value”. In addition, for the setting “Scratchard plot analysis of fluorescence polarization, chitinase domain purified from E. coli, read-out: dissociation constant (kd)”, the Kd is 800 nM.

As to `CC(=O)NC1C(OC2C(CO)OC(OC3C(CO)OC(OC4C(CO)OC(Oc5ccc6c(C)cc(=O)oc6c5)C(NC(C)=O)C4O)C(NC(C)=O)C3O)C(NC(C)=O)C2O)OC(CO)C(O)C1O` (stereo not drawn) [Mu-chitotetrose], the “binding to the chitinase domain, seen as change in polarization value” was “increased polarization value”.

The Kd is a measure of binding affinity in units of concentration.
